Experimental data as given in patent US20130045983A1, “HSP90 INHIBITORS FOR THERAPEUTIC TREATMENT” (Novartis AG, priority 2008, published 2013).

What was measured:
Assay type in all cases: cell-based
OVXF 899 = experiment: Clonogenic assay, OVXF 899; conditions: Homo sapiens, Ovary, Pap. serous adenocarcinoma, soft agar, read-out: IC50 (colony formation)
Experimental: (§1) The anticancer activity of (R)-2-amino-7-[2-(6-methoxy-pyridin-2-yl)-phenyl]-4-methyl-7,8-dihydro-6H-pyrido[4,3-d]pyrimidin-5-one is evaluated in 30 human tumor xenografts in vitro using a clonogenic assay. In this assay, human cells derived from cancer patients are evaluated for the capacity of (R)-2-amino-7-[2-(6-methoxy-pyridin-2-yl)-phenyl]-4-methyl-7,8-dihydro-6H-pyrido[4,3-d]pyrimidin-5-one to inhibit the formation of 3 dimensional colonies. […] The tumor xenografts which have never been cultured in cell culture plastic dishes are isolated from nude mice. Tumor cell suspensions are prepared and incubated in 24 well plates containing layers of soft agar. Under these conditions a special subpopulation of cells selectively grows to colonies. (R)-2-amino-7-[2-(6-methoxy-pyridin-2-yl)-phenyl]-4-methyl-7,8-dihydro-6H-pyrido[4,3-d]pyrimidin-5one is tested in 6 concentrations up to 1000 nM. The tumor test panel comprises 1 to 10 models of 12 different human tumor types, which were bladder cancer, colon, gastric, non small cell lung (adeno, squamous cell, and large cell), small cell lung, mammary, ovary, and prostate cancer, as well as leukemia, lymphoma, melanoma, and sarcoma. Antitumor effects are recorded as inhibition of colony formation in relation to untreated controls. […]

CXF 243 = experiment: Clonogenic assay, CXF 243; conditions: Homo sapiens, Colon, Adenocarcinoma, soft agar, read-out: IC50 (colony formation)
Experimental: as §1

LXFE 211 = experiment: Clonogenic assay, LXFE 211; conditions: Homo sapiens, Lung, non-small cell, Squamous cell carcinoma, soft agar, read-out: IC50 (colony formation)
Experimental: as §1

MAXF 401 = experiment: Clonogenic assay, MAXF 401; conditions: Homo sapiens, MAXF401, Breast, Pap. adenocarcinoma, soft agar, read-out: IC50 (colony formation)
Experimental: as §1

PRXF DU145 = experiment: Clonogenic assay, PRXF DU145; conditions: Homo sapiens, DU-145, Prostate, Adenocarcinoma, soft agar, read-out: IC50 (colony formation)
Experimental: as §1

PRXF 22RV1 = experiment: Clonogenic assay, PRXF 22RV1; conditions: Homo sapiens, Prostate carcinoma, soft agar, read-out: IC50 (colony formation)
Experimental: as §1

LYXF U937 = experiment: Clonogenic assay, LYXF U937; conditions: Homo sapiens, U-937, Histiocytic lymphoma, soft agar, read-out: IC50 (colony formation)
Experimental: as §1

MAXF 1162 = experiment: Clonogenic assay, MAXF 1162; conditions: Homo sapiens, Breast, invasive ductal carcinoma, soft agar, read-out: IC50 (colony formation)
Experimental: as §1

H929 = experiment: Cell proliferation assay, H929 (multiple myeloma); conditions: Homo sapiens, NCI-H929, 72 hours in presence of compound
Experimental: (§2) Seventeen cancer derived cell lines are used (GTL-16, N87, H1975, A549, H69, A2780, PC3, BT474, SKBR3, MCF-7, A375, MV4;11, K562, KM12L4A, H929, OPM-2 and KMS-11) to test the effect of (R)-2-amino-7-[2-(6-methoxy-pyridin-2-yl)-phenyl]-4-methyl-7,8-dihydro-6H-pyrido[4,3-d]pyrimidin-5-one. These cell lines cover the following 9 tumor types: Gastric, Lung, Ovarian, Prostate, Breast, Melanoma, Leukemia, Colon and Multiple myeloma. After division and medium change, cells from stock culture are seeded on cell plates and cultured for about 18 hours to allow cell growth and attachment before starting the assay. Then on the first day of the assay, (R)-2-amino-7-[2-(6-methoxy-pyridin-2-yl)-phenyl]-4-methyl-7,8-dihydro-6H-pyrido[4,3-d]pyrimidin-5-one is added to the medium at various concentrations. Cells are cultured up to 72 or 96 hours and cell proliferation is determined using commercially available cell proliferation kits.
(§3) Table 1 relates to the concentration in nM of (R)-2-amino-7-[2-(6-methoxy-pyridin-2-yl)-phenyl]-4-methyl-7,8-dihydro-6H-pyrido[4,3-d]pyrimidin-5-one which inhibits cell proliferation by 50% (IC50). […]

LXFA 289 = experiment: Clonogenic assay, LXFA 289; conditions: Homo sapiens, Lung, non-small cell, Adenocarcinoma, soft agar, read-out: IC50 (colony formation)
Experimental: as §1

H69 = experiment: Cell proliferation assay, H69 (lung); conditions: Homo sapiens, NCI-H69, 72 hours in presence of compound
Experimental: as §2, §3

N87 = experiment: Cell proliferation assay, N87 (gastric); conditions: 72 hours in presence of compound
Experimental: as §2, §3

PC3 = experiment: Cell proliferation assay, PC3 (prostate); conditions: Homo sapiens, PC-3, 72 hours in presence of compound
Experimental: as §2, §3

MAXF 857 = experiment: Clonogenic assay, MAXF 857; conditions: Homo sapiens, Breast, Invasive ductal carcinoma, soft agar, read-out: IC50 (colony formation)
Experimental: as §1

GTL-16 = experiment: Cell proliferation assay, GTL-16 (gastric); conditions: Homo sapiens, 72 hours in presence of compound
Experimental: as §2, §3

PRXF MRIH1579 = experiment: Clonogenic assay, PRXF MRIH1579; conditions: Homo sapiens, Prostate, Adenocarcinoma, soft agar, read-out: IC50 (colony formation)
Experimental: as §1

A375m = experiment: Cell proliferation assay, A375m (melanoma); conditions: 72 hours in presence of compound
Experimental: as §2, §3

PRXF PC3M = experiment: Clonogenic assay, PRXF PC3M; conditions: Homo sapiens, PC-3M, Prostate, Adenocarcinoma, metastatic, soft agar, read-out: IC50 (colony formation)
Experimental: as §1

CXF 1103 = experiment: Clonogenic assay, CXF 1103; conditions: Homo sapiens, CXF1103, Colon, Adenocarcinoma, soft agar, read-out: IC50 (colony formation)
Experimental: as §1

COc1cccc(-c2ccccc2[C@H]2Cc3nc(N)nc(C)c3C(=O)N2)n1 [(R)-2-amino-7-[2-(6-methoxy-pyridin-2-yl)-phenyl]-4-methyl-7,8-dihydro-6H-pyrido[4,3-d]pyrimidin-5-one]
IC50 (OVXF 899): > 100 nM | IC50 (CXF 243): 44 nM | IC50 (LXFE 211): 0.76 nM | IC50 (MAXF 401): 15 nM | IC50 (PRXF DU145): 17 nM | IC50 (PRXF 22RV1): 23 nM | IC50 (LYXF U937): 28 nM | IC50 (MAXF 1162): 6 nM | GI50 (H929): 20 nM | IC50 (LXFA 289): 639 nM | GI50 (H69): 37 nM | GI50 (N87): 12 nM | GI50 (PC3): 16 nM | IC50 (MAXF 857): 12 nM | GI50 (GTL-16): 18 nM | IC50 (PRXF MRIH1579): > 1000 nM | GI50 (A375m): 36 nM | IC50 (PRXF PC3M): 276 nM | IC50 (CXF 1103): 27 nM
